Consider one compound from patent US20200360311A1, “USE OF 3-METHYLMETHCATHINONE” (MIND MEDICINE, NC., priority 2017, published 2020).

Data set [1] can be described thus: Human subject's perception of 3-MMC's effect after oral administration. The format is in vivo. The conditions noted are these: human subjects. How it is done:
The present inventors have observed that, in some embodiments the onset of human subject's perception of 3-MMC's effect is approximately 30-90 minutes following oral administration, varying according to whether the 3-MMC was administered to a fasting (more rapid onset), or following a meal (less rapid onset). In some cases, the perception of peak effect of 3-MMC in human subjects occurred between 10 to 30 minutes after the initial perception of onset of 3-MMC's effect. The present inventors further observed that the duration of perception of the effect of 3-MMC in human subjects was, in most cases, for no greater than 4 hours following oral administration.

The nature of data set [2]: Case Study I: 3-MMC-assisted psychotherapy for post-traumatic stress disorder (PTSD). Format: in vivo, human. The conditions noted are these: person, three 3-MMC-assisted psychotherapy sessions, 200 milligrams orally. The source says:
Person suffering from PTSD who was previously incorrectly diagnosed with bipolar disorder, unable to work was under the care of a psychiatrist with no improvement in 4 years. […] In this case, the therapy consisted of both a male and female therapist in a room designed for this therapy (soft lighting, bed, attractive pillows, carefully chosen music, inspirational art—spiritual and nature). The patient was taught relaxation and breathing techniques and briefed in what to expect from the experience. In this case 200 milligrams of 3-MMC was given orally and the patient then lay down on the bed and listened to soothing music for 1.5 hours with eye shades on (internal experience). […] The therapists engaged in psychotherapy for 2 hours after which the patient once again lay down and put on the eyeshades for another 2 hours. Subsequently, the patient re-engaged with the therapists and explored their insights about how they could reframe the traumatic memory to be a positive learning experience.

Data set [3] is described as follows: Case Study III: 3-MMC assisted therapy for relationship distress. The conditions noted are these: person, four 3-MMC assisted psychotherapy sessions, 300 milligrams orally. Format: in vivo, human. How it is done:
Single professional entered in to 3-MMC assisted therapy to understand why their relationships with men never lasted more than a few months. […] In this case the patient was assessed and prepared by the female therapist in two preliminary sessions where the patients relationship history was explored. The patient was encouraged to consider the connection between their experience of their parent's relationship when they were a child and their reaction to men they dated which was coloured by their past history. The location of the therapy was the living room of the therapist which had been prepared with inspirational art and wall hangings. The sound system consisted of headphones and an ipod with soothing/spiritual music. On the treatment days the patient was given 300 milligrams of 3-MMC orally. The treatment session started by the therapist guiding a meditation exercise and then the patient was encouraged to reflect internally by lying down with eyeshades and listening to the music. In this case the internal experience was 20 minutes after which the patient removed the eyeshades and turned off the music and proceeded to express intense emotions which related to their past anger at their parent. […]

The conditions of data set [4]: animal models, cited from earlier work.
Data set [5] is described as follows: Case Study II: 3-MMC couple's therapy. The conditions noted are these: heterosexual couple, 6 sessions over 6 months, 150 milligrams each orally plus booster 100 milligrams 1 hour later. The format is in vivo, human. The source says:
Heterosexual couple married for 17 years were caught in a cycle of repetitive conflict over what they both agreed were trivial issues. They described intense, mutual emotional reactivity and angry outbursts which was problematic enough to begin to discuss divorcing. As a last attempt to resolve their conflicts they agreed to participate in once a month 3-MMC couple's therapy. […] In this case the therapy consisted of one therapist who assessed the couple and prepared for the 3-MMC sessions with 2 non-3MMC sessions where the couple was taught a specific communication technique (Non Violent Communication). The space was a normal therapist's office with comfortable furnishings, 3 chairs and an adjoining kitchen. The 3-MMC was given orally which a dosage of 150 milligrams each followed by a booster dosage of 100 milligrams given 1 hour after the first dosage. The couple alternated between periods of listening to relaxing music and conversation, where they explored their own perspectives on how to communicate in relationship both currently and historically. The counsellor would translate some of the couple's statements in the language of non-violent communication and encourage self responsibility. The end of the session occurred 5 hours after the booster dose and a light meal was prepared and served and the couple and therapist ate and debriefed the session. […]

The nature of data set [6]: Case Study IV: 3-MMC-assisted psychotherapy for PTSD and Generalized Anxiety Disorder (GAD). The format is in vivo, human. The conditions noted are these: person, 200-400 mg twice weekly on two consecutive days for 8 weeks; from week 5 also EMDR with propanolol. The text has this: A person had been suffering from Post traumatic Stress Disorder (PTSD), depression, and General Anxiety Disorder (GAD).
The symptoms they experienced were panic attacks, hyperventilation, pain in the chest, numbness, and tingling in the extremities, Irritable-Bowel Syndrome (IBS), nightmares, and insomnia.
The PTSD had been caused by a particular life-threatening event, as well as other related incidences that had unfolded in their youth. The psychological ramifications of these events went undiagnosed for many years, although they were eventually treated for anxiety and depression. They refused however, to take the anti-depressants that their physician was willing to prescribe them, and only occasionally would take 5-10 mg Oxazepam for acute panic attacks.
At the time that they started with the 3-MMC-assisted psychotherapy, they had been suffering from an occupational burnout for 4 months already cf. DC-10 Z-73.0.
3-MMC was administered twice weekly on two consecutive days at a dosage of 200-400 mg each time for a period of 8 weeks. Starting at week 5; 3-MMC-assisted psychotherapy took place once a week. Each session lasted 6.5-10 h with an average of 8.5 h per session. […]

Regarding `CNC(C)C(=O)c1cccc(C)c1` (stereo not drawn) [3-MMC, 3-methylmethcathinone], the “onset of subject's perception of effect” value in data set [1] (following oral administration, fasting more rapid, following a meal less rapid) lay in the range of 30 to 90 min. In addition, in data set [1] (following oral administration, in most cases), the “duration of perception of the effect” value is ≤ 4 h. Further, the “perception of peak effect” value in data set [1] (time after the initial perception of onset of effect, in some cases) lay within 10 to 30 min. Moreover, the “clinical outcome of PTSD patient” value in data set [2] is “no longer diagnosable with either PTSD or bipolar and was able to return to gainful employment”. The “outcome of therapy for relationship distress” value in data set [3] is on record as “understood their previously unconscious behaviour pattern”. Further, the “time at which peak serum concentrations are apparent” value in data set [4] (after oral administration) was 5 to 10 min. Moreover, the apparent plasma half-life result in data set [4] (after oral ingestion) is listed as “approximately 0.8 hours”. Besides, the “outcome of couple's therapy” value in data set [5] was “able to take responsibility for their own problematic behaviour and negotiate a more functional relationship”. For the same compound, the “level of fear associated with traumatic memories” value in data set [6] is on record as “led the level of associated fear to decrease with each subsequent session”.
